The values that follow come from patent US10440975B2, “Feed additive composition for reducing methane gas produced by ruminant animals” (CJ CHEILJEDANG CORPORATION, priority 2014, dated 2019).

For the assay, the system named is rumen fluid. Nature of the assay: Rumen simulation continuous culture system (RSCC): methane production, pH, digestibility. It is filed as cell-based. The note with it: vs control group. The protocol: 0.12 mL of a micromineral solution was added to 250 mL of distilled water in an 2 L of Erlenmeyer flask and stirred. Another 250 mL of distilled water was added, and then stirred for 20 minutes. Then, 250 mL of an in vitro buffer solution was added and stirred for 10 minutes. Then, 250 mL of a macromineral solution was added and stirred for 15 minutes. Then, 1.25 mL of a resazurin solution was added to the mixture and stirred. Then, the flask was sealed with aluminum foil and heated while maintaining an anaerobic condition by bubbling CO2 gas in a Hungate anaerobic culture tube. When the solution started boiling, the solution was heated for 10 more minutes and then cooled down. 50 mL of a reduction solution was added to the cooled solution to obtain a buffer.
A sampled rumen fluid was first filtered through eight-layer gauze and then through glass wool. The filtered rumen fluid was maintained in an anaerobic condition by CO2 bubbling. While maintaining the anaerobic condition by CO2 bubbling, the buffer solution prepared in 1) above was mixed with the rumen fluid (250 mL of the rumen fluid, 600 mL of the buffer solution).
10 g of a substrate was added to a fermenter. The buffer solution prepared in 1) was added into a buffer bag while maintaining the anaerobic condition. A Tedlar bag filled with CO2 gas was connected to the buffer bag, and a tube connected to the buffer bag was connected to a buffer inlet port of the fermenter lid. Then a tube connected to a gas collecting bag was connected to a gas collecting port of the fermenter lid (a tube for gas was used). A pH probe and a temperature probe were placed deep enough to reach the culture medium while not touching the impellers. In the meantime, a feed inlet tube was placed deep enough to reach the culture medium through the feeding port of the fermenter lid. The fermenter lid was then connected to the fermenter and an anaerobic condition inside the fermenter was maintained by using vacuum grease and Teflon tape. CO2 gas was introduced into the fermenter through the gas collecting port for about 10 minutes (making the inside of the fermenter anaerobic, continuously introducing CO2 gas until the initiation of cultivation). All joint connections were sealed with vacuum grease and Teflon tape. Once all devices were installed, a peristaltic pump was activated and the buffer solution was introduced into the fermenter. The anaerobic culture medium was introduced into the fermenter until it overflowed, and then the CO2 gas introduction into the fermenter was discontinued and all inlet ports were sealed. The fermenter was then connected to a circulator, and cultivation started at 39° C. with a stirring speed between 99 rpm and 102 rpm. The pH of the culture medium of the fermenter was between 6.8 and 7.1, and a temperature was maintained at between 39° C. and 40° C. A turnover rate of the culture medium was stabilized at 0.042 h^−1 while a turnover rate of the substrate was stabilized at 0.017 h^−1.
Below is an experiment on reduction of methane production conducted in accordance with the above operation method using the RSCC system of 3) of Preparation Example. A feed additive for reducing methane was added with the substrate when the substrate was added.
The RSCC system was operated for five days of adjustment, and then total gas production, methane production, and pH values of the control group were measured for three days. After the measurements of the control group were completed, DADS was added at ratios of 0.1 wt %, 0.2 wt %, and 0.4 wt % per 10 g of a substrate, and then total gas production, methane production, and pH values were measured at the same time for another three days. The methane reduction rate was measured after having an adjustment period with a newly sampled rumen fluid every time one additive examines.

Where [1] appears, read: additive 0.1 wt % per 10 g of substrate.
[2] abbreviates: additive 0.5 wt % per 10 g of substrate.

In the case of `COc1ccc2cc3[n+](cc2c1OC)CCc1cc2c(cc1-3)OCO2` [Berberine, 5,6-dihydro-9,10-dimethoxybenzo[g]-1,3-benzodioxolo[5,6-a]quinolizinium], the “Methane Reduction (%)” value was 6.7% under setting [1], 12.4% (additive 0.2 wt % per 10 g of substrate) and 45.5% under setting [2].
Turning to `O=[N+]([O-])O` [Nitrate], the “Methane Reduction (%)” value reads like this: (additive 0.35 wt % per 10 g of substrate) 14.0%; under setting [2], 31.0%; (additive 1.0 wt % per 10 g of substrate) 8.1%.
Regarding “((2R)-2-amino-3-[(S)-prop-2-enylsulfinyl] propanoic acid [Alliin]”, under setting [2], the “Methane Reduction (%)” value is recorded as 21.9%.
Regarding `C=CCSSCC=C` [DADS, 4,5-dithia-1,7-octadiene diallyldisulfide], the “Methane Reduction (%)” value under setting [1] is 30.5%.
